Assay results: US4317768A, “Dihydropyridine derivatives as stabilizers for vinyl chloride polymers” (priority 1977, dated 1982)

Columns and labels:
[1] = Static thermostability (GARDNER method), rigid PVC sheets, 210° C., 0.3 part stabilizer; conditions: for thermostabilizing power compared to 2-phenyl-indole, in words: 210° C.
Procedure: (§1) This study was carried out according to the GARDNER method, described in British Pat. No. 1,489,685.
(§2) The reference substance was 2-phenyl-indole, a well-known and widely used stabilizer.
(§3) The stabilizer (dihydropyridine or 2-phenyl-indole) and the other usual ingredients were mixed with powdered vinyl resins and the mixtures were calendered at a temperature of 160° C. to give rigid sheets.
(§4) The sheets were then heated in a thermostated oven (185° C. or 210° C.) for different intervals of time until incipient carbonization.
(§5) The coloration of the samples was compared to a standard scale of coloration, known as the GARDNER scale and was expressed in terms of the reference figures of the GARDNER scale.
(§6) This study was carried out with the following resin:
(§7) Polyvinyl chloride resin
(§8) SL 2016 is a solution of zinc-2-ethyl-hexanoate in a mixture of hydrocarbons boiling between 158° C. and 184° C.
The first trial was carried out at 210° C. with a resin containing 0.3 part by weight of stabilizer, the sheets being removed from the oven every three minutes over a period of 21 minutes.

[2] = Static thermostability (GARDNER method), rigid PVC sheets, 185° C., 0.3 part stabilizer
Procedure: as §1, §2, §3, §4, §5, §6, §7, §8
A second trial was performed at a temperature of 185° C., with a resin containing 0.3 part of stabilizer, the samples being removed from the oven every 6 minutes over a period of 24 minutes, then every 3 minutes until the 42nd minute (or until carbonization).

Row | thermostabilizing power compared to 2-phenyl-indole, in words [1] | SMILES | coloration, GARDNER scale ([1]; 0 min) | coloration, GARDNER scale ([1]; 3 min) | coloration, GARDNER scale ([1]; 6 min) | coloration, GARDNER scale ([1]; 9 min) | coloration, GARDNER scale ([1]; 12 min) | coloration, GARDNER scale ([1]; 15 min) | coloration, GARDNER scale ([1]; 18 min) | coloration, GARDNER scale ([2]; 0 min) | coloration, GARDNER scale ([2]; 6 min) | coloration, GARDNER scale ([2]; 12 min) | coloration, GARDNER scale ([2]; 18 min) | coloration, GARDNER scale ([2]; 24 min) | coloration, GARDNER scale ([2]; 27 min) | coloration, GARDNER scale ([2]; 30 min) | coloration, GARDNER scale ([2]; 33 min) | coloration, GARDNER scale ([2]; 36 min) | coloration, GARDNER scale ([2]; 39 min) | coloration, GARDNER scale ([2]; 42 min) | coloration, GARDNER scale ([1]; 21 min)
1 | greatly superior to 2-phenyl-indole | CCOC(=O)C1=C(Cc2ccccc2)NC(Cc2ccccc2)=C(C(=O)OCC)C1 [Compound 16, 2,6-Dibenzyl-3,5-dicarbethoxy-1,4-dihydropyridine] | 1 | 1 | 3 | 4 | 11 | 18 | Burnt | – | – | – | – | – | – | – | – | – | – | – | –
2 | – | CC1=C(C(=O)OCc2ccc(Cl)cc2)CC(C(=O)OCc2ccc(Cl)cc2)=C(C)N1 [Compound 7, 2,6-Dimethyl-3,5-di-(4'carbochloro-benzyloxy)-1,4-dihydropyridine] | 1 | 1 | 2 | 4 | 10.5 | 14 | Burnt | – | – | – | – | – | – | – | – | – | – | – | –
3 | greatly superior to 2-phenyl-indole | CC1=C(C(=O)OCCCl)CC(C(=O)OCCCl)=C(C)N1 [Compound 3, 2,6-Dimethyl-3,5-di-(2'-carbochloro-ethoxy)-1,4-dihydroyridine] | 1 | 1 | 3 | 4 | 5 | 10.5 | Burnt | 1 | 1 | 5 | 8 | 10 | 10.5 | 13 | 14 | 18 | 18 | Burnt | –
4 | greatly superior to 2-phenyl-indole | C=CCCC1=C(C(=O)OC)CC(C(=O)OC)=C(CCC=C)N1 [Compound 17, 2,6-Di-(3-butenyl)-3,5-dicarbomethoxy-1,4-dihydropyridine] | 1 | 1 | 2 | 8 | 9 | Burnt | – | – | – | – | – | – | – | – | – | – | – | – | –
5 | – | CC1=C(C(=O)OCCOCCCl)CC(C(=O)OCCOCCCl)=C(C)N1 [Compound 19, 2,6-Dimethyl-3,5-di-(2"-carbochloro-2'ethoxy-ethoxy)-1,4-dihydropyridine] | 1 | 1 | 1 | 2 | 3 | 10 | 13 | – | – | – | – | – | – | – | – | – | – | – | Burnt
6 | – | COCCOC(=O)C1=C(C)NC(C)=C(C(=O)OCCOC)C1 [Compound 25] | 1 | 1 | 1 | 1 | 1 | 4 | 11 | – | – | – | – | – | – | – | – | – | – | – | 17
7 | – | CCOCCOC(=O)C1=C(C)NC(C)=C(C(=O)OCCOCC)C1 [Compound 26] | 1 | 1 | 1 | 1 | 1.5 | 3 | 11 | – | – | – | – | – | – | – | – | – | – | – | Burnt
